Reference: ChEMBL document CHEMBL1201862, “PubChem BioAssay data set” (2004)
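Values below derive from 48-hour exposures of cells grown in 96-well plates, with endpoints linearly interpolated between the two concentrations bracketing the appropriate inhibition level. The concentration for 50% growth inhibition is given as GI50.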 Active and inactive are the calls of the source. Rule as the data show it: active = GI50 up to about 1.1 µM and inactive = higher.

What was measured:
Test in all cases: inhibition of tumour cell growth, NCI panel, 48 h
SK-MEL-5 = tested on: SK-MEL-5
HOP-62 = tested on: HOP-62
MCF7 = tested on: MCF7
SF-268 = tested on: SF-268
UACC-257 = tested on: UACC-257
OVCAR-8 = tested on: OVCAR-8
UO-31 = tested on: UO-31
SK-MEL-28 = tested on: SK-MEL-28
Malme-3M = tested on: Malme-3M
HL-60 = tested on: HL-60
BT-549 = tested on: BT-549
RXF 393 = tested on: RXF 393
K562 = tested on: K562
T47D = tested on: T47D
CCRF-CEM = tested on: CCRF-CEM
SF-539 = tested on: SF-539
HCT-116 = tested on: HCT-116
SR = tested on: SR
LOX IMVI = tested on: LOX IMVI
IGROV-1 = tested on: IGROV-1

Measured: GI50

CC1CC[C@@]2(OC1)O[C@H]1C[C@H]3[C@@H]4CC[C@H]5C[C@@H](OC6OC(CO)C(OC7OC(CO)C(OC8OC(CO)C(O)C(OC9OC(C)C(OC%10OC(C)C(O)C(O)C%10O)C(O)C9O)C8OC8OCC(O)C(O)C8O)C(O)C7O)C(O)C6O)CC[C@]5(C)[C@H]4CC(=O)[C@]3(C)[C@H]1[C@@H]2C (stereo not given in full)
inactive: SK-MEL-5 16.8 µM | HOP-62 21.4 µM | MCF7 17.7 µM | SF-268 25.6 µM | UACC-257 18.2 µM | OVCAR-8 20.7 µM | UO-31 19.2 µM | SK-MEL-28 18.1 µM | Malme-3M 22.4 µM | HL-60 12.9 µM | BT-549 20.9 µM | RXF 393 16.9 µM | K562 16.7 µM | T47D 19.3 µM | CCRF-CEM 12.2 µM | SF-539 14.8 µM | HCT-116 23.4 µM | SR 14.6 µM | LOX IMVI 23.8 µM | IGROV-1 20.5 µM
